Counter-ions that a name gives are not always drawn. Like-named read-outs stand apart in the source and are kept apart here.
Test system: STAT6
Experiment: Inhibitory test on STAT6 activation: IL-4-induced alkali phosphatase STAT6 reporter in 293 cells stably expressing the STAT6 gene and STAT6 reporter gene
Assay type: cell-based
Settings: HEK293, 1 ng/ml human recombinant IL-4, 16 hours, 293 cells with STAT6 reporter, read-out: Inhibitory activity IC50 (concentration at which the alkali phosphatase activity induced by IL-4 was inhibited by 50%)
Procedure, shortened: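 HEK293 clone stably carrying STAT6 and a STAT6-element-driven alkaline phosphatase reporter, 5000 cells/well. Compound (DMSO ≤0.1%) plus 1 ng/ml human IL-4 for 16 hours. Supernatant heat-treated 65° C. 10 minutes, then alkaline phosphatase measured fluorometrically in carbonate buffer.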

SMILES	IC50 (Table 2) [nM]	IC50 (Table 1) [nM]
NC(=O)[C@@H]1CCCN1Cc1ccc(-c2cnc3ccc(-c4c[nH]nc4-c4ccc(F)cc4)cn23)s1 [Example 92, (2S)-1-[(5-{6-[3-(4-Fluorophenyl)-1H-4-pyrazolyl]-imidazo-[1,2-a]pyridin-3-yl}-2-thienyl)methyl]tetrahydro-1H-2-pyrrole carboxyamide trihydrochloride]	–	< 10
CN(CC(=O)c1ccc(F)cc1)S(=O)(=O)c1ccc(-c2ncnc3ccc(-c4c[nH]nc4-c4ccc(F)cc4)cc23)s1 [Example 866, 5-{6-[3-(4-Fluorophenyl)-1H-pyrazol-4-yl]quinazolin-4-yl}thiophen-2-sulfonic acid [2-(4-fluorophenyl) 2-oxoethyl]methylamide dihydrochloride]	10 to 100	–
O=C(Nc1ccc(F)cc1F)c1ccc(-c2cnc3ccc(-c4cn[nH]c4)cn23)cc1F [Example 678, N1-(2,4-Difluorophenyl)-2-fluoro-4-[6-(1H-4-pyrazolyl)-imidazo[1,2-a]pyridin-3-yl]benzamide hydrochloride]	–	< 10
Cc1n[nH]cc1-c1ccc2ncc(-c3ccc(C(=O)NCCc4ccccn4)c(F)c3)n2c1 [Example 648, N1-[2-(2-Pyridyl)ethyl]-2-fluoro-4-[6-(3-methyl-1H-4-pyrazolyl)imidazo[1,2-a]pyridin-3-yl] benzamide]	–	10 to 100
COc1ccc(-c2ncnc3ccc(-c4c[nH]nc4-c4ccc(F)cc4)cc23)cc1 [Example 254, 6-[3-(4-Fluorophenyl)-1H-4-pyrazolyl]-4-[4-(methoxyphenyl)-quinazolinedihydrochloride]	–	10 to 100
O=C(Nc1nc2ccc(OC(F)(F)F)cc2s1)c1ccc(-c2cnc3ccc(-c4cn[nH]c4)cn23)cc1F [Example 670, N1-[6-(Trifluoromethoxy)-1,3-benzothiazol-2-yl]-2-fluoro-4-[6-(1H-4-pyrazolyl)imidazo[1,2-a]pyridin-3-yl]benzamide dihydrochloride]	–	10 to 100
FC(F)(F)c1cccc(N2CCN(c3ncnc4ccc(-c5cn[nH]c5)cc34)CC2)c1 [Example 265, 6-(1H-4-Pyrazolyl)-4-{4-[3-(trifluoromethyl)phenyl]-piperazin-1-yl}quinazoline trihydrochloride]	–	10 to 100

Further lines, results first:

IC50 (Table 2) [nM]	IC50 (Table 1) [nM]	SMILES
10 to 100	–	COc1nnc(-c2ncnc3ccc(-c4c[nH]nc4-c4c(F)cccc4F)cc23)o1 [Example 909, 6-[3-(2,6-Difluorophenyl)-1H-pyrazol-4-yl]-4-(5-methoxy|[1,3,4]oxadiazol-2-yl) quinazoline]
< 10	–	CS(=O)(=O)c1ccc(-c2ncnc3ccc(-c4c[nH]nc4-c4ccc(Cl)cc4F)cc23)s1 [Example 894, 6-[3-(4-Chloro-2-fluorophenyl)-1H-pyrazol-4-yl]-4-(5-methylsulfonylthiophen-2-yl) quinazoline]
100 to 1000	–	CS(=O)(=O)c1ccc(-c2ncnc3ccc(-c4c[nH]nc4CNc4ccc(F)cc4F)cc23)s1 [Example 906, 2,4-Difluorophenyl{4-[4-(5-methylsulfonylthiophen-2-yl)quinazolin-6-yl]-1H-pyrazol-3-ylmethyl} amine]
< 10	–	Cn1cc(-c2ncnc3ccc(-c4c[nH]nc4-c4c(F)cccc4F)cc23)cn1 [Example 910, 6-[3-(2,6-Difluorophenyl)-1H-pyrazol-4-yl]-4-(1-methyl-1H-pyrazol-4-yl) quinazoline]
10 to 100	–	CS(=O)(=O)c1ccc(C(=O)C2CCN(c3ncnc4ccc(-c5cn[nH]c5)cc34)CC2)s1 [Example 880, (5-Methylsulfonylthiophen-2-yl)-{1-[6-(1H-pyrazol-4-yl)quinazolin-4-yl]piperidin-4-yl}methanone trihydrochloride]
10 to 100	–	O=C(Nc1ccc(F)cc1F)c1ccc(-c2ncnc3ccc(-c4cn[nH]c4)cc23)s1 [Example 869, 5-[6-(1H-Pyrazol-4-yl)quinazolin-4-yl]thiophen-2-carboxylic acid (2,4-difluorophenyl)amide dihydrochloride]

— patent US7074801B1, “Nitrogen-containing condensed cyclic compound having a pyrazolyl group as a substituent group and pharmaceutical composition thereof” (Eisai Co., Ltd., priority 2001, dated 2006)
